Laboratory results published in article PMC12480751, “A quantitative high-throughput screening pipeline to identify small molecule inhibitors of Chikungunya nsP2 protease” (Scientific Reports, 2025).
Entries after “also recorded” stand apart in the source; their conditions may differ. Read-outs that look alike come from different tables or passages of the source.

Legend:
nsP2pro = nsP2pro (Chikungunya virus, UniProt Q8JUX6); conditions: for nsP2pro Vmax: 150 nM nsP2pro (peptide 2) or 2 μM nsP2pro (peptide 3); for Km: read-out: nsP2pro Km; for Km / nsP2pro kcat: substrate peptide
FL nsP2 = FL nsP2 (Chikungunya virus, UniProt Q8JUX6, C1333A); conditions: for full-length nsP2 Vmax: 150 nM nsP2 (peptide 2) or 2 μM nsP2 (peptide 3); for Km: read-out: FL nsP2 Km; for Km / FL nsP2 kcat: substrate peptide
CHIKV nsP2pro = CHIKV nsP2pro (Chikungunya virus, UniProt Q8JUX6); assay: FRET-based nsP2pro proteolytic assay with peptide 2 (nsp3/4 site), 1,536-well qHTS; assay type: biochemical; conditions: for selectivity for nsP2pro versus Papain, hFurin and HCV NS3-4A: based on biochemical counterscreens; for Emax: read-out: Enzymatic % Efficacy; for inhibitory activity against CHIKV nsP2: biochemical assays
nsP2 protease = target: T1, nsP2 protease (Chikungunya virus, UniProt Q8JUX6); assay: cell-based; assay type: cell-based; conditions: for Emax: HEK293, read-out: Cell-based % Efficacy
T1 construct: expressed in transfected cells; host or cells: HEK293T (the results text says HEK293), transient co-transfection in pcDNA3.1(+)
T1 sequence (Q8JUX6 755-1333 limits assumed): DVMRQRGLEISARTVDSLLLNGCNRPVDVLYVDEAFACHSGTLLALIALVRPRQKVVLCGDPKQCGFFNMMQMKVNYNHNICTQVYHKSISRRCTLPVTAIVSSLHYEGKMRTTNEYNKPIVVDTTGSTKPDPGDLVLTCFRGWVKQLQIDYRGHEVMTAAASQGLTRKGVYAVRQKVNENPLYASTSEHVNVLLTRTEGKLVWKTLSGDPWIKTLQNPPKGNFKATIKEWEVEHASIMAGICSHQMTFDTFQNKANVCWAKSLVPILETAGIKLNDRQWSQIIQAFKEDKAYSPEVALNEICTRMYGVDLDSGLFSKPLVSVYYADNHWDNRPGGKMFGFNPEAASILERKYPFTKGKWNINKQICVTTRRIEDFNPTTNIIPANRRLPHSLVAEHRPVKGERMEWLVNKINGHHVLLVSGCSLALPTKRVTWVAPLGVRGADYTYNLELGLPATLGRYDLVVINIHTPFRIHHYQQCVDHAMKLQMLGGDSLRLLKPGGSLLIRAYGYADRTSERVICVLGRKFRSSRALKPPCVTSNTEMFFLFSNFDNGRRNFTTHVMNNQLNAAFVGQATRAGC

[1] = test system: CHIKV 181/25 vaccine strain; assay: CHIKV181/25 infection assay in SNB-19 cells, high-content immunofluorescence
human Furin = human Furin (Homo sapiens, UniProt P09958); assay: human Furin FRET selectivity counterscreen; assay type: biochemical
Sequence of human Furin (P09958 108-794): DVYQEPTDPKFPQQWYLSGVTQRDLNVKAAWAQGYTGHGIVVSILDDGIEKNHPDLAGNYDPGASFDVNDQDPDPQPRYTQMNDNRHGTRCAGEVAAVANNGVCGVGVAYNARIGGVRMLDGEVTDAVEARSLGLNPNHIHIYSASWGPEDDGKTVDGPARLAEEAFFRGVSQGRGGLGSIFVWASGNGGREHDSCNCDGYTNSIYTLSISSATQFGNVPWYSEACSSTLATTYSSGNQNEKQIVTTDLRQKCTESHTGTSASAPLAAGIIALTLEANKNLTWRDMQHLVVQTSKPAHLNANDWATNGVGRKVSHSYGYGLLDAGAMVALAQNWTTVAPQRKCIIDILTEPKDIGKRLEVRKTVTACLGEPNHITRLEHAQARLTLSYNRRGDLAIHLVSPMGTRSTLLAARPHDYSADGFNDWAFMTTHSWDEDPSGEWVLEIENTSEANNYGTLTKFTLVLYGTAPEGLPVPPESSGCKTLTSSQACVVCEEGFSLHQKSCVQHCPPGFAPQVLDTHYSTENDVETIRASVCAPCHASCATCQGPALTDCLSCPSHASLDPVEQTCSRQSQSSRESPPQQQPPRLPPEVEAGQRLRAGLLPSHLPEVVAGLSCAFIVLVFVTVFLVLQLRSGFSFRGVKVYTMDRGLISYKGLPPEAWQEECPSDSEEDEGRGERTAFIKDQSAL

[2] = CellTiter-Glo cell viability assay of SNB19 cells; assay type: cell-based, human; conditions: human, SNB19 cells
Method: Cells were harvested in growth media and dispensed (5 µL /1,000 cells/well) onto 1536-well white plates (Aurora #EWB041000A) using a Multidrop Combi. Control and test compounds were added (25 nL) using an Echo 650 liquid handler. Plates were incubated for 48 h at 37 °C and 5% CO2 and then equilibrated to room temperature prior to addition of 4 µL /well of CellTiter-Glo (Promega) using a Multidrop Combi. Plates were subsequently incubated for 15 min at room temperature and centrifuged for 1 min at 1000 rpm. Luminescence was read on a ViewLux imager equipped with clear filters.

Papain = Papain (Carica papaya, UniProt P00784)
Sequence of Papain (P00784 134-345): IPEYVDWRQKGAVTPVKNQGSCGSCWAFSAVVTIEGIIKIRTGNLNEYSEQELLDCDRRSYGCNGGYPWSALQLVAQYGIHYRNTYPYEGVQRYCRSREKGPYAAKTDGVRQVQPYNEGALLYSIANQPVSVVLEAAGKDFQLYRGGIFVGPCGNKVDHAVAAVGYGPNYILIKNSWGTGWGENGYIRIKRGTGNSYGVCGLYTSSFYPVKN

[3] = nsP2pro biochemical assay, 13 cell-active hits
[4] = nsP2pro biochemical assay, 13 cell-active hits, read-out: Enzymatic IC50

5-TAMRA-DELRLDRAGGYIFSS-K-QSY7 [Peptide 2]
nsP2pro Vmax (nsP2pro): 0.26 µM/min | Km (nsP2pro): 6.3 µM | nsP2pro kcat (nsP2pro): 214.2 ± 13.1 x 10^-4 sec^-1 | full-length nsP2 Vmax (FL nsP2): 0.2 µM/min | Km (FL nsP2): 1.1 µM | FL nsP2 kcat (FL nsP2): 167.2 ± 10.4 s⁻¹

Nc1nc2c(s1)CCN(Cc1ccc(Cl)cc1)CC2 [B-HT 958]
IC50 (CHIKV nsP2pro): 7.9 µM | selectivity for nsP2pro versus Papain, hFurin and HCV NS3-4A (CHIKV nsP2pro): specific to nsP2pro | Emax (CHIKV nsP2pro): -62.1% | AC50 (nsP2 protease): 0.23 µM | Emax (nsP2 protease): 114%

O=C(O[C@@H]1Cc2c(O)cc(O)cc2O[C@@H]1c1cc(O)c(O)c(O)c1)c1cc(O)c(O)c(O)c1 [EGCG, Epigallocatechin gallate]
inhibitory activity against CHIKV nsP2 (CHIKV nsP2pro): inhibited nsp2pro activity in vitro | effect on Nluc reporter signal in cellular nsp2 proteolytic assay (nsP2 protease): did not have an effect | effect on CHIKV infection ([1]; SNB-19 cells): strongly prevented CHIKV infection

Nc1ccn([C@@H]2O[C@H](CO)[C@@H](O)C2(F)F)c(=O)n1 [Gemcitabine]
concentrations showing consistent CHIKV inhibition ([1]; SNB-19 cells, infection inhibition control): under 1 µM

C[C@H](N)[C@H](O)c1ccc(O)c(O)c1 [Levonordefrin]
IC50 (CHIKV nsP2pro): 7.7 µM | selectivity for nsP2pro versus Papain, hFurin and HCV NS3-4A (CHIKV nsP2pro): not selective | Emax (CHIKV nsP2pro): -74.9% | AC50 (nsP2 protease): 0.4 µM | Emax (nsP2 protease): 71.5% | activity against HCV NS3-4A (HCV NS3-4A): also inhibited

CCOc1ccc(NC(=O)c2c(NC(=O)Cc3ccccc3)sc3c2CCCCC3)cc1 [NCGC00098557]
Enzymatic % Efficacy (CHIKV nsP2pro; [3]): -80.1% | IC50 (CHIKV nsP2pro; [4]): 7.9 µM | Cell-based % Efficacy (nsP2 protease): 101.3% | AC50 (nsP2 protease; read-out: Cell-based AC50): 12.9 µM

CCCS(=O)(=O)c1ncc(Cl)c(C(=O)N(Cc2ccccc2)Cc2ccco2)n1 [NCGC00115102]
selectivity for nsP2pro versus Papain, hFurin and HCV NS3-4A (CHIKV nsP2pro): specific to nsP2pro

O=c1oc2c3c(ccc2c2ccccc12)OCN(Cc1ccc(Cl)cc1)C3 [NCGC00116366]
IC50 (CHIKV nsP2pro): 4.5 µM | Emax (CHIKV nsP2pro): -114% | AC50 (nsP2 protease): 36.5 µM | Emax (nsP2 protease): 309%

O=c1oc2c3c(ccc2c2ccccc12)OCN(Cc1ccccc1Cl)C3 [NCGC00116374]
IC50 (CHIKV nsP2pro): 4 µM | selectivity for nsP2pro versus Papain, hFurin and HCV NS3-4A (CHIKV nsP2pro): specific to nsP2pro | Emax (CHIKV nsP2pro): -103% | AC50 (nsP2 protease): 14.5 µM | Emax (nsP2 protease): 112%

Cc1cccc(C(=O)Nc2ccc(N3CCN(c4ccc(F)cc4)CC3)c(C(=O)O)c2)c1 [NCGC00137618]
Enzymatic % Efficacy (CHIKV nsP2pro; [3]): -83% | IC50 (CHIKV nsP2pro; [4]): 10 µM | Cell-based % Efficacy (nsP2 protease): 55.5% | AC50 (nsP2 protease; read-out: Cell-based AC50): 32.6 µM

Cc1ccc(OCCn2c(CCNC(=O)c3ccccc3N)nc3ccccc32)cc1 [NCGC00241881]
selectivity for nsP2pro versus Papain, hFurin and HCV NS3-4A (CHIKV nsP2pro): not selective | Enzymatic % Efficacy (CHIKV nsP2pro; [3]): -106.1% | IC50 (CHIKV nsP2pro; [4]): 1.1 µM | Cell-based % Efficacy (nsP2 protease): 179% | AC50 (nsP2 protease; read-out: Cell-based AC50): > 50 µM

Cc1cccc(-c2noc([C@@H]3Cc4nc[nH]c4CN3C(=O)NC3CCCCC3)n2)c1 [NCGC00400417]
selectivity for nsP2pro versus Papain, hFurin and HCV NS3-4A (CHIKV nsP2pro): not selective | Enzymatic % Efficacy (CHIKV nsP2pro; [3]): -107.3% | IC50 (CHIKV nsP2pro; [4]): 2.1 µM | Cell-based % Efficacy (nsP2 protease): 75.7% | AC50 (nsP2 protease; read-out: Cell-based AC50): 47.2 µM

COc1cccc(C(=O)CCN[C@@H](C)[C@H](O)c2ccccc2)c1 [Oxyfedrine]
IC50 (CHIKV nsP2pro): 1.3 µM | selectivity for nsP2pro versus Papain, hFurin and HCV NS3-4A (CHIKV nsP2pro): selective hits; also recorded: specific to nsP2pro | Emax (CHIKV nsP2pro): -88.6% | AC50 (nsP2 protease): 2.6 µM | Emax (nsP2 protease): 60.3%

C#CC(=O)N(c1ccc(OC)cc1OC)C(C(=O)NCC(=O)OCC)c1cccs1 (stereo not shown) [PACMA 31]
selectivity for nsP2pro versus Papain, hFurin and HCV NS3-4A (CHIKV nsP2pro): selective hits

C/C(=N\NC(=N)N)c1cc(NC(=O)CCCCCCCCC(=O)Nc2cc(/C(C)=N/NC(=N)N)cc(/C(C)=N/NC(=N)N)c2)cc(/C(C)=N/NC(=N)N)c1 [Semapimod]
IC50 (CHIKV nsP2pro): 6.3 µM | selectivity for nsP2pro versus Papain, hFurin and HCV NS3-4A (CHIKV nsP2pro): not selective | Emax (CHIKV nsP2pro): -106% | activity against Furin (human Furin): weak activity | AC50 (nsP2 protease): 2.2 µM | Emax (nsP2 protease): 137% | CC50 at 48 h [2]: 20.6 µM | activity against HCV NS3-4A (HCV NS3-4A): also inhibited | IC50 ([1]; Chikungunya virus, SNB-19, 44 h, read-out: IC50, prevention of CHIKV infection): 1.6 µM | potency on CHIKV infection relative to effect on cell viability ([1]; IC50 infection vs CC50 SNB19): > tenfold

CCC[C@H](NC(=O)[C@@H]1[C@H]2CCC[C@H]2CN1C(=O)[C@@H](NC(=O)[C@@H](NC(=O)c1cnccn1)C1CCCCC1)C(C)(C)C)C(=O)C(=O)NC1CC1 [Telaprevir]
IC50 (CHIKV nsP2pro): 3.5 µM | selectivity for nsP2pro versus Papain, hFurin and HCV NS3-4A (CHIKV nsP2pro): not selective | Emax (CHIKV nsP2pro): -123% | AC50 (nsP2 protease): 31.6 µM | Emax (nsP2 protease): 213% | CC50 at 48 h [2]: 11.6 µM | activity against Papain (Papain): potently inhibiting | activity against HCV NS3-4A (HCV NS3-4A): potently inhibiting; also recorded: also inhibited

COC(=O)CC[C@H](NC(=O)[C@H](CC(=O)OC)NC(=O)OCc1ccccc1)C(=O)N[C@H](C(=O)N[C@@H](CC(=O)OC)C(=O)CF)C(C)C [Z-DEVD-FMK]
inhibitory activity against CHIKV nsP2 (CHIKV nsP2pro): did not identify

CC(NC(=O)[C@H](Cc1ccccc1)NC(=O)OCc1ccccc1)C(=O)CF (stereo partly shown) [Z-FA-FMK]
inhibitory activity against CHIKV nsP2 (CHIKV nsP2pro): minimal inhibitory activity | activity against Papain (Papain): potently inhibiting

CC(C)N(CCC(=O)c1ccc2ccccc2c1)Cc1ccccc1 [ZM39923]
selectivity for nsP2pro versus Papain, hFurin and HCV NS3-4A (CHIKV nsP2pro): selective hits

CCCCN(CCCC)C(=S)[S-].CCCCN(CCCC)C(=S)[S-].[Zn+2] [Zinc dibutyldithiocarbamate]
inhibitory activity against CHIKV nsP2 (CHIKV nsP2pro): potent inhibitor | activity against Furin (human Furin): either weak or had no effect | activity against Papain (Papain): potent inhibitor | activity against HCV NS3-4A (HCV NS3-4A): either weak or had no effect | effect on CHIKV infection ([1]; SNB-19 cells): difficult to distinguish from cell toxicity

TMR-DELRLDRAGC/APSYR-K-QSY7 [Peptide 3]
nsP2pro Vmax (nsP2pro): 1.03 µM/min | Km (nsP2pro): 81.9 µM | nsP2pro kcat (nsP2pro): 85.5 ± 4.1 x 10^-4 sec^-1 | full-length nsP2 Vmax (FL nsP2): 0.38 µM/min | Km (FL nsP2): 37.5 µM | FL nsP2 kcat (FL nsP2): 32.1 ± 2.1 s⁻¹
